Measured values as given in US20190192458A1, “THERAPEUTIC/PROPHYLACTIC AGENT FOR GRAFT-VERSUS-HOST DISEASE, FIBROCYTE INVASION INHIBITOR, AND INHIBITOR AGAINST TEAR REDUCTION AND REDUCTION IN GOBLET CELLS” (KEIO UNIVERSITY, priority 2016, published 2019).

Legend:
[1] = tested on: cGVHD model mice (B10.D2 to BALB/c bone marrow transplantation); assay: Survival and change in weight of PBA-treated allogeneic bone marrow transplantation recipient mice; assay type: in vivo, mouse; conditions: PBA 10 mg/kg i.p. once daily Day 10 to Day 27 after allogeneic bone marrow transplantation
Description: Bone marrow transplantation was performed on model mice of cGVHD (Zhang Y, McCormick L L, Desai S R, Wu C, Gilliam A C, Murine Sclerodermatous Graft-Versus-Host Disease, a Model for Human Scleroderma: Cutaneous Cytokines, Chemokines, and Immune Cell Activation. The Journal of Immunology, 2002; 168: 3088-3098). When a donor was a B10.D2 mouse and a recipient was a BALB/c mouse, bone marrow transplantation was allogeneic, producing a model mouse of cGVHD. […] Recipients were irradiated at 700 cGy before bone marrow transplantation to perform lethal irradiation with a Gammacel 137 Cs source (Hitachi Medical Corp.). The recipient mice were each administered via tail vein with a suspension containing 1×10^6 donor bone marrow cells and 2×10^6 donor spleen cells.
Bone marrow transplantation was performed as described in the above section “Bone marrow transplantation,” and the resulting allogeneic bone marrow transplantation recipient mice were divided into two groups. One group was treated with intraperitoneal injection of PBA (10 mg/kg) (Aldrich) while the other was treated with intraperitoneal injection of a solvent vehicle⋅phosphate buffered saline (PBS) (pH 7.4). […]
Statistical significance was determined by the Mann-Whitney U test (which tests difference between two groups that have no correspondence). […]

cGVHD target organs = assay: Histological observation of cGVHD target organs (HE, Mallory, CD45 immunostaining, electron microscopy, PAS); assay type: in vivo, mouse
Description: Bone marrow transplantation was performed as described in the above section “Bone marrow transplantation,” and the resulting allogeneic bone marrow transplantation recipient mice were divided into two groups. One group was treated with intraperitoneal injection of PBA (10 mg/kg) (Aldrich) while the other was treated with intraperitoneal injection of a solvent vehicle⋅phosphate buffered saline (PBS) (pH 7.4). The allogeneic bone marrow transplantation recipients received once-daily administration of PBA or the solvent vehicle from Day 10 to Day 27 after bone marrow transplantation. They were sacrificed on Day 28 after bone marrow transplantation.
cGVHD-affected organs (exorbital lacrimal gland, proximal portion of the small intestine, dorsal skin, liver, salivary gland, lung, large intestine, and eyes) were analyzed herein.
The exorbital lacrimal gland, the proximal part of the small intestine, dorsal skin, the liver, the salivary gland, the lung, the large intestine, and the eyes were collected from transplant recipients at 3 or 4 weeks after bone marrow transplantation. Subsequently, these samples were fixed with 10% neutral buffered formalin, and then each embedded in paraffin. The resulting paraffin blocks were each cut into 7-μm thick sections, and then stained with • (1) hematoxylin and eosin; • (2) Malory trichrome staining (Hopwood J, Fixation and fixtative. In: Bancroft J D, Stevens A, eds., Theory and Practice of Histological Techniques, 4th ed, Edinburgh: Churchill-Livingstone, 1996:23-46; Anderson G, Gordon K, Tissue processing, microtomy and paraffin sections. In: Bancroft J D, Stevens A, eds. T. Theory and Practice of Histological Techniques, 4th ed, Edinburgh: Churchill-Livingstone, 1996:47-68); and • (3) antibody.
For immunohistochemical assay, paraffin was first removed, and antigens were then collected by either one of the following two antigen collecting methods. • (A) For staining sections with CD45 antibody (30-F11, BD Pharmingen), the sections were immersed in an antigen retrieval solution (Target Retrieval Solution; Dako), and then boiled for 10 minutes in a microwave oven. • (B) For multistaining with CD68 (FA-11, Abd Serotec) and CHOP (F-168, Santa Cruz Biotechnology, Inc.), sections were washed with an antigen retrieval solution (HistoVT One; Nacalai Tesque, Inc.), and then heated in a water bath at 90° C. for 40 minutes. Next, the sections were blocked with 10% normal goat blood serum, and antigens in the tissue sections were then allowed to react with the primary antibodies at 4° C. overnight. Subsequently, the sections were treated with fluorophore-labelled secondary antibodies at room temperature (for example, 1 to 30° C.) for 45 minutes, and then mounted with an anti-fading mounting medium (Fluorescent Mounting Medium; Dako).
Fluorescence images were captured under an LSM confocal microscope (Carl Zeiss). For counting CD45^+ cells, 5 randomly selected regions per section were photographed at a magnification of ×200, and the number of CD45^+ cells in each image was then determined. As secondary antibodies, used were goat anti-mouse IgG (H+L) secondary antibody conjugated with Alexa Fluor 488 (Molecular Probes) and goat anti-rat IgG (H+L) secondary antibody conjugated with Alexa Fluor 568 (Molecular Probes). For isotype controls, rat IgG2b, κ (eB149/10H5, eBioscience, Inc.), rat IgG2a (54447, R&D Systems, Inc.), and rabbit IgG (Cell Signaling Technology, Inc.) were used for CD45, CD68, and CHOP, respectively.
Transmission electron microscopy was performed in accordance with a standard protocol. Tissues were collected from a mouse lacrimal gland and small intestine, and immediately fixed with 2.5% glutaraldehyde in 0.1 M phosphate buffer (pH 7.4) at 4° C. for 4 hours, and then washed 3 times with 0.1 M phosphate buffer. Subsequently, the samples were fixed again with 2% osmium tetroxide, and dehydrated with a gradient series of ethanol and 100% propylene oxide, and then embedded in epoxy resin. […]

[2] = PBA-treated vs vehicle-treated eye, FIG. 4-1A

O=C(O)CCCc1ccccc1 [PBA, 4-phenyl-n-butyric acid]
% survival ([1]; vs vehicle (PBS), FIG. 2A, n=14, P<0.05): higher survival percentage | change in weight ([1]; vs vehicle, FIG. 2B, n=10, P<0.001): the vehicle-treated mouse group showed larger weight loss as compared with the PBA-treated mouse group | electron microscopy: hypertrophied endoplasmic reticula, cell fragments, damaged mitochondria, destroyed small villi, damaged adjacent tissues (cGVHD target organs; PBA-treated lacrimal gland and small intestine vs vehicle-treated, FIG. 4-2D): not observed | goblet cells in conjunctiva epithelium (PAS staining) (cGVHD target organs; PBA-treated vs vehicle-injected eye, n=5, P<0.001, FIG. 4-2F, 4-2G): more goblet cells | goblet cells in small intestine (PAS staining) (cGVHD target organs; PBA-treated vs vehicle-injected small intestine, n=3, P<0.001, FIG. 4-2F, 4-2G): more goblet cells | conjunctiva epithelium thinning and damage (HE staining) (cGVHD target organs; [2]): thinning and damage were observed in the vehicle-treated conjunctiva epithelium in contrast with the PBA-treated conjunctiva epithelium | meibomian gland (HE staining) (cGVHD target organs; [2]): the meibomian gland of the vehicle-treated eye was decreased and contracted as compared with the PBA-treated meibomian gland | infiltration of inflammatory cells (HE staining) (cGVHD target organs; PBA-treated vs vehicle-treated organs, FIG. 4-1A): inhibited | cGVHD-induced systemic fibrosis (Mallory staining) (cGVHD target organs; PBA-treated vs vehicle-treated organs, FIG. 4-1C): substantially inhibited | numbers of inflammatory cells (CD45+ cells) (cGVHD target organs; PBA-treated vs vehicle-treated organs, immunostaining and counting, n=3, FIG. 4-2E): considerably smaller | skin thickness, fat tissues, density of collagen bundles (HE staining) (cGVHD target organs; PBA-treated vs vehicle-treated skin, FIG. 4-1A): the vehicle-treated skin became thickened, lost fat tissues, and increased the density of collagen bundles in contrast with the PBA-treated skin | intestinal villi of small and large intestines (HE staining) (cGVHD target organs; PBA-treated vs vehicle-treated small and large intestines, FIG. 4-1A): not impaired | structures of the intestinal and conjunctival mucous membranes (PAS staining) (cGVHD target organs; after systemic injection of PBA): remained intact
